# According to US20160143906A1, “EFFICACIOUS TREATMENT OF NSCLC AND PREDICTIVE CLINICAL MARKER OF THE RESPONSIVENESS OF A TUMOUR TO A TREATMENT” (Boehringer Ingelheim International GmbH, priority 2013, published 2016):
# “Also recorded” adds a separate entry of the source. Like-named read-outs stand apart in the source and are kept apart here.
# Legend:
# [1] = tested on: NSCLC after fast progression on first-line platinum doublet chemotherapy; conditions: TITAN; fast progressing patients who failed during 1st line platinum containing therapy; cited from earlier work
# [2] = tested on: tumors with activating EGFR mutations or the Alk translocation; conditions: monotherapy; non-squamous patients with activating EGFR mutations or Alk translocation; cited from earlier work
# SKOV3 = experiment: in vivo anti-tumor efficacy, xenograft model SKOV3 (ovarian); conditions: 50 mg/kg/d
# NCI-H460 = experiment: in vivo anti-tumor efficacy, xenograft model NCI-H460 (lung, non-small-cell); conditions: 25 mg/kg/d
# Caki-1 = experiment: in vivo anti-tumor efficacy, xenograft model Caki-1 (renal); conditions: 100 mg/kg/d
# HT-29 = experiment: in vivo anti-tumor efficacy, xenograft model HT-29 (colorectal)
# NSCLC = experiment: clinical trial evidence as summarised (progression within 9 months or less after initiation of prior treatment); format: in vivo, human
# PAC-120 = experiment: in vivo anti-tumor efficacy, xenograft model PAC-120 (prostate, hormone-dependent); conditions: 100 mg/kg/d
# Rip-Tag = experiment: in vivo anti-tumor efficacy, Rip-Tag model (pancreas, murine transgenic)
# [3] = tested on: locally advanced/metastatic NSCLC; experiment: Phase 3 clinical study LUME LUNG 1 (nintedanib+docetaxel vs placebo+docetaxel); format: in vivo, human
# Source text: LUME LUNG 1 is a placebo-controlled phase 3 trial investigating nintedanib+docetaxel in patients with locally advanced/metastatic NSCLC progressing after one prior combination regimen.
# (§1) In the case of a significant interaction between treatment and a continuous variable, not only the categorisation delivered by the recursive partitioning was investigated but hazard ratios HR (treatment effect) were also globally estimated at different values of the interacting covariate.
# (§2) Kaplan-Meier plots and Forrest Plots were further used for the graphical presentation of the results.
# advanced NSCLC tumours = experiment: Phase 3 clinical study LUME LUNG 2 (nintedanib+pemetrexed vs placebo+pemetrexed); format: in vivo, human
# Source text: Continuation until Progressive Disease (PD) or unacceptable toxicity with nintedanib, placebo, pemetrexed, or a combination thereof, was permitted. […] Primary endpoint was centrally assessed PFS. Secondary endpoints included OS, investigator-assessed PFS, Response Rate (RR), safety, and Quality of Life (QoL). Stepwise selection, using Cox proportional hazards modeling and a recursive partitioning tree, identified baseline variables prognostic for PFS in Arm B (placebo) of LUME LUNG 2. […] These methods were applied to the LUME LUNG 2 Data Monitoring Committee (DMC) dataset, to develop a hypothesis that was tested and validated by three steps: (i) internal confirmation using centrally assessed PFS and internal validation using OS data of the clinical trial LL2; (ii) external validation using the data from the primary analysis of the independent clinical trial LL1 (centrally assessed PFS and internal validation using OS data); and (iii) external validation using the final OS data of the clinical trial LL1.
# as §1, §2
# GS-9L syngeneic rat = experiment: in vivo anti-tumor efficacy, syngeneic rat tumor model GS-9L (glioblastoma); conditions: 50 mg/kg/d
# Calu-6 = experiment: in vivo anti-tumor efficacy, xenograft model Calu-6 (lung, non-small-cell); conditions: 50 mg/kg/d
# FaDu = experiment: in vivo anti-tumor efficacy, xenograft model FaDu (head and neck); conditions: 100 mg/kg/d
# [4] = LL1 squamous cell tumour histology
# [5] = LL1 squamous cell, large tumour burden
compound,measurement,setting,value
C#Cc1cccc(Nc2ncnc3cc(OCCOC)c(OCCOC)cc23)c1 [erlotinib],efficacy in PFS and OS compared to docetaxel or pemetrexed,[1],did not show any superior efficacy
same,OS improvement,[2],no OS improvements have been observed
same,median PFS,[2],around 20 months
"COC(=O)c1ccc2c(c1)NC(=O)/C2=C(\Nc1ccc(N(C)C(=O)CN2CCN(C)CC2)cc1)c1ccccc1 [nintedanib, 3-Z-[1-(4-(N-((4-methyl-piperazin-1-yl)-methylcarbonyl)-N-methyl-amino)-anilino)-1-phenyl-methylene]-6-methoxycarbonyl-2-indolinone]",T/C (reduction of tumor size in % of the control),SKOV3,T/C 19% @ 50 mg/kg/d
same,T/C (reduction of tumor size in % of the control),NCI-H460,T/C 54% @ 25 mg/kg/d
same,T/C (reduction of tumor size in % of the control),Caki-1,T/C 13% @ 100 mg/kg/d
same,T/C (reduction of tumor size in % of the control),"HT-29; HT-29, 100 mg/kg/d",T/C 16% @ 100 mg/kg/d
same,Efficacy,HT-29; HT-29 large tumors,tumor volume reduction
same,improvement in the median of both PFS and OS compared to placebo,NSCLC,superior or equal to one month
same,improvement in the median of both PFS and OS compared to placebo,NSCLC; adenocarcinoma NSCLC,≥ 1.3 months
same,T/C (reduction of tumor size in % of the control),PAC-120,T/C 34% @ 100 mg/kg/d
same,Efficacy,Rip-Tag,interference with tumor
same,HR (OS),[3]; LL1 adenocarcinoma,0.83
same,HR (PFS),[3]; LL1 adenocarcinoma,0.84
same,benefit in fast progressing population with cut-off of 4 or 6 months,"[3]; LL1 adenocarcinoma, t<4 mo or t<6 mo",confirmed
same,HR (OS),"[3]; LL1 adenocarcinoma, t<9 mo",0.75
same,HR (PFS),"[3]; LL1 adenocarcinoma, t<9 mo",0.68
same,HR (OS),[3]; LL1 all NSCLC patients,0.94
same,HR (PFS),[3]; LL1 all NSCLC patients,0.85
same,HR (OS),[3]; [4],1.01
same,HR (PFS),[3]; [4],0.83
same,Improvement of median OS of nintedanib versus placebo,[3]; [4],No benefit; also recorded: None (OS)
same,HR (OS),[3]; [5],0.82
same,HR (PFS),[3]; [5],0.71
same,Improvement of median PFS of nintedanib versus placebo,[3]; [5],0.9 months (PFS)
same,median PFS,"[3]; LL1 whole NSCLC patient population, centrally assessed",3.5 months
same,safety,advanced NSCLC tumours; LL2,no safety issues were identified
same,median PFS,"advanced NSCLC tumours; LL2 ITT analysis, centrally reviewed PFS",4.4 months
same,Disease control,"advanced NSCLC tumours; LL2 ITT, versus placebo",significantly improved
same,HR (OS),"advanced NSCLC tumours; LL2 adenocarcinoma, t<9 mo",0.87
same,HR (PFS),"advanced NSCLC tumours; LL2 adenocarcinoma, t<9 mo",0.79
same,HR (OS),advanced NSCLC tumours; LL2 all,1.01
same,HR (PFS),advanced NSCLC tumours; LL2 all,0.84
same,Improvement of median OS of nintedanib versus placebo,advanced NSCLC tumours; LL2 all,No difference; also recorded: None (OS)
same,median improvement of time to deterioration of cough,"advanced NSCLC tumours; LL2 fast progressing patients, nintedanib versus placebo",3.7 months
same,median OS,advanced NSCLC tumours; LL2 t<9 mo patient population,10.6 months
same,median PFS,advanced NSCLC tumours; LL2 t<9 mo patient population,4.1 months
same,T/C (reduction of tumor size in % of the control),GS-9L syngeneic rat,T/C 32% @ 50 mg/kg/d
same,T/C (reduction of tumor size in % of the control),Calu-6,T/C 24% @ 50 mg/kg/d
same,T/C (reduction of tumor size in % of the control),FaDu,T/C 11% @ 100 mg/kg/d
